A short description of data set [1]: Intrinsic clearance in rat liver microsomes at 10 uM incubated for 1 hr in presence of NADPH by LC-MS/MS analysis. To be noted: read-out: CLH. It counts as ADME, Microsome. (In general: Microsomes from liver hold many membrane-bound enzymes, among them those of drug oxidation.)
A short description of data set [2]: Intrinsic clearance in human liver microsomes at 10 uM incubated for 1 hr in presence of NADPH by LC-MS/MS analysis. It counts as ADME, Microsome. Particulars: read-out: CLH.
For data set [3], the target named is T1, Sigma non-opioid intracellular receptor 1 (Homo sapiens, UniProt Q99720). Kind of data set: Displacement of [3H]-pentazocine from sigma-1 receptor in human Jurkat cell membrane incubated for 2 hr by liquid scintillation counting method. Format: cell membranes.
Data set [4] deals with T2, Sigma intracellular receptor 2 (Homo sapiens, UniProt Q5BJF2). Nature of the data set: Displacement of [3H]-DTG from sigma-2 receptor in human Jurkat cell membrane at 1000 nM incubated for 1 hr by liquid scintillation counting method relative to control. It counts as cell membranes. To be noted: filed as antagonist.
Data set [5] has as its target T2, Sigma intracellular receptor 2. Kind of data set: Displacement of [3H]-DTG from sigma-2 receptor in human Jurkat cell membrane incubated for 1 hr by liquid scintillation counting method. Format: cell membranes. (In general: In a radioligand displacement assay an active substance lowers the binding of a labelled ligand.)
Data set [6] concerns the target T1, Sigma non-opioid intracellular receptor 1. Nature of the data set: Displacement of [3H]-pentazocine from sigma-1 receptor in human Jurkat cell membrane at 100 nM incubated for 2 hr by liquid scintillation counting method relative to control. It counts as cell membranes.
Data set [7] can be described thus: Displacement of [3H]-DTG from sigma-2 receptor in guinea pig brain membrane incubated for 1 hr by liquid scintillation counting method. Format: cell membranes, Cavia porcellus.
Data set [8] deals with T3, Sigma non-opioid intracellular receptor 1 (Cavia porcellus, UniProt Q60492). Nature of the data set: Displacement of [3H]-(+)-pentazocine from sigma-1 receptor in guinea pig brain membranes incubated for 1 hr by liquid scintillation counting method. Format: cell membranes, Membrane.
A short description of data set [9]: Metabolic stability in rat liver microsomes assessed as half-life at 10 uM incubated for 1 hr in presence of NADPH by LC-MS/MS analysis. It counts as ADME, Microsome.
A short description of data set [10]: Metabolic stability in human liver microsomes assessed as half-life at 10 uM incubated for 1 hr in presence of NADPH by LC-MS/MS analysis. It counts as ADME, Microsome.
In data set [11] the target is Sigma non-opioid intracellular receptor 1 (Cavia porcellus) (UniProt Q60492). Nature of the data set: Ratio of Ki for displacement of [3H]-(+)-pentazocine from sigma-1 receptor to Ki for displacement of [3H]-(+)-pentazocine from sigma-1 receptor in guinea pig brain membranes in presence of phenytoin. It counts as cell membranes. To be noted: Membrane.
Data set [12] addresses T3, Sigma non-opioid intracellular receptor 1.
Data set [13] in a line: Toxicity in Sprague-Dawley rat assessed as effect on motor coordination at 100 mg/kg, ip measured at 60 to 120 mins post treatment by rotarod test. Format: organism-based. To be noted: in vivo, time 60-120 min.
The subject of data set [14] is Rattus norvegicus. Kind of data set: Antinociceptive activity in formalin-induced Sprague-Dawley rat model of nociceptive pain assessed as decrease in time spent on licking during late phase at 100 mg/kg, ip administered 30 mins before formalin stimulation and measured at 5 mins interval for 10 to 35 mins. It counts as functional, organism-based.
The subject of data set [15] is Rattus norvegicus. Nature of the data set: Analgesic activity in Sprague-Dawley rat model of paclitaxel-induced neuropathic pain assessed as decrease in mechanical allodynia by measuring reduction in pain threshold at 100 mg/kg, ip measured at 0.5 to 1.5 hrs by Von Frey assay relative to control. To be noted: time 0.5-1.5 hrs. It counts as functional, organism-based.

Data set [16] has as its system Rattus norvegicus. Nature of the data set: Analgesic activity in Sprague-Dawley rat model of paclitaxel-induced neuropathic pain assessed as reduction in cold hyperalgesia by measuring increase in paw withdrawal latency at 100 mg/kg, ip measured at 1 to 2 hrs post dosing by Von Frey assay relative to control. To be noted: time 1-2 hrs. Format: functional, organism-based.

The results in this text go back to ChEMBL document CHEMBL4765482, “Novel Sigma 1 Receptor Antagonists as Potential Therapeutics for Pain Management” (J Med Chem, 2021).

SMILES strings stand for the structures. The source made the active and inactive calls. Some results are limits rather than exact numbers.

As a reminder, the Ki is a dissociation constant, usually derived from enzyme kinetics or from competition with a known ligand. What is called half-life is the time in which the quantity being followed falls by half.

T1 sequence (Q99720 whole entry): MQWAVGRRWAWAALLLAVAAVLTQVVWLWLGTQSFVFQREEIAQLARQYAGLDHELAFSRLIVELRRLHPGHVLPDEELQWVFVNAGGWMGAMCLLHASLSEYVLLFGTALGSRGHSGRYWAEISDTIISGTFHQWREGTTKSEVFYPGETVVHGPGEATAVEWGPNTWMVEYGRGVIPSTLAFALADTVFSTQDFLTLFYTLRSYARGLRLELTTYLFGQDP
T2 sequence (Q5BJF2 whole entry): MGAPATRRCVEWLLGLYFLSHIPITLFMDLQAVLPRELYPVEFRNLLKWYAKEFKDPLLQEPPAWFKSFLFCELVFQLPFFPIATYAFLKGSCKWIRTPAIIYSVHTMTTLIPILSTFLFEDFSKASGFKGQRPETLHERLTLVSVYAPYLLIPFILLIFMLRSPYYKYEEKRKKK
T3 sequence (Q60492 whole entry): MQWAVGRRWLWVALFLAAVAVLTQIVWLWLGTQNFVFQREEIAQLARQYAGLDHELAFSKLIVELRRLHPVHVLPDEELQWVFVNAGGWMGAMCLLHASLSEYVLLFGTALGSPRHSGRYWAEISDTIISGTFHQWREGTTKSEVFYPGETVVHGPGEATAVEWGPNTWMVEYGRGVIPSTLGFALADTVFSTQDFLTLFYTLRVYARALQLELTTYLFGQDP
Chain of Sigma non-opioid intracellular receptor 1 (Cavia porcellus) (Q60492 whole entry): as above

On to `O=C(O)Cc1ccccc1Nc1c(Cl)cccc1Cl` [DICLOFENAC], for which the microsomal CLint at 10 µM in data set [1] amounted to 196 µL/min/mg; in data set [2] it was 189 µL/min/mg.

`Cn1nc(CN2CCCC2)nc1-c1ccc(C2CCCCC2)cc1`: the affinity in [3] corresponds to a Ki of 20 nM. Moreover, the Activity in data set [4] was found to be 89%.

On to `CC(C)c1ccc(-c2nc(CN3CCCC3)nn2C)cc1`, for which the Ki turned out to be 96 nM in [3] and 1000 nM in data set [5].

On to `Cc1ccc(-c2nc(CN3CCCC3)nn2C)cc1`, for which the Activity in data set [6] was 3%. This molecule yielded an inhibitory constant (Ki) in data set [5] greater than 1000 nM.

As for `Cn1nc(CN2CCCC2)nc1-c1ccc(Oc2ccccc2)cc1`, the Activity was determined as 39% in data set [6] and 65% in data set [4].

For `Cn1nc(CN2CCCC2)nc1-c1ccc(C(F)(F)F)cc1`, the Ki in data set [3] was 82 nM; in [5], greater than 1000 nM.

Molecule `Cn1nc(CN2CCN(Cc3ccccc3)CC2)nc1-c1ccc(C(C)(C)C)cc1` gave a Ki in data set [7] of 39 nM.

Turning to `CC(C)n1nc(CN2CCCC2)nc1-c1ccc(C(C)(C)C)cc1`, the Ki in [3] came out at 2.2 nM.

Consider `Cc1cc(OCCN2CCOCC2)nn1-c1ccc2ccccc2c1`, for which the Ki is 3 nM in data set [8] and greater than 1000 nM in [7]. The half-life at 10 µM in [9] was 3.6 min; in [10] it was 64.6 min. Further, the microsomal CLint at 10 µM in data set [1] is 190 µL/min/mg; in [2], 10.7 µL/min/mg.

For the molecule `O=C(CCCN1CCC(O)(c2ccc(Cl)cc2)CC1)c1ccc(F)cc1` [HALOPERIDOL], the affinity in data set [7] corresponds to a Ki of 4.7 nM.

`Cn1nc(CN2CCCCC2)nc1-c1ccc(C(C)(C)C)cc1` came in with a Ki in data set [7] of 441 nM.

As for `COc1ccc2c(c1)[C@]13CCCC[C@@H]1[C@H](C2)N(C)CC3` [DEXTROMETHORPHAN], the Ki amounted to 63 nM in [8] and 10 nM in [12]. The Ratio Ki in data set [11] worked out at 6.3.

With `Cn1nc(CN2CCCC2)nc1-c1cccc(C2(C(F)(F)F)CC2)c1`, the values for the half-life at 10 µM in [9] and in data set [10] were 4.8 min and 87.6 min, respectively. For the same molecule, the microsomal CLint at 10 µM in [1] came out at 144 µL/min/mg; in data set [2] it was 7.9 µL/min/mg.

Take `Cn1nc(CN2CCCC2)nc1-c1ccc(C2(C(F)(F)F)CC2)cc1`: the half-life at 10 µM in data set [9] is 3.3 min; in data set [10], 172 min. Besides, the microsomal CLint at 10 µM in data set [1] came out at 207 µL/min/mg; in data set [2], 4 µL/min/mg.

`Cn1nc(CN2CCCC2)nc1-c1cccc(-c2ccccc2)c1` came in with an Activity in data set [6] (filed as antagonist) of 40%. Further, in data set [5], the Ki came out at 1000 nM.

Molecule `Cn1nc(CN2CCCC2)nc1-c1ccc2c(c1)CCC2` showed an Activity in data set [6] of 37%. The molecule further came in with a Ki in data set [5] of 1000 nM.

In the case of `Cn1nc(CN2CCCC2)nc1-c1ccc(Cl)c(Cl)c1`, the half-life at 10 µM came to 5.1 min in data set [9] and 84.7 min in data set [10]. The microsomal CLint at 10 µM in [1] worked out at 135 µL/min/mg; in data set [2], 8.2 µL/min/mg.

`Cc1ncc2n1-c1ccc(Cl)cc1C(c1ccccc1F)=NC2` [MIDAZOLAM]: the values for the half-life at 10 µM in [9] and in data set [10] were 2.4 min and 2.6 min, respectively. The microsomal CLint at 10 µM was determined as 293 µL/min/mg in [1] and 263 µL/min/mg in data set [2].

`Cn1nc(CN2CCN(c3ccccc3)CC2)nc1-c1ccc(C(C)(C)C)cc1`: the values for the Ki in data set [8] and in data set [7] were 14 nM and greater than 1000 nM, respectively. Further, the results for the half-life at 10 µM in data set [9] and in data set [10] were 23.3 min and 37.3 min, respectively. In addition, the microsomal CLint at 10 µM in data set [1] is 29.8 µL/min/mg; in [2], 18.6 µL/min/mg.

With `Cn1nc(CN2CCCC2)nc1-c1ccc(C2CC2)cc1`, in data set [6], the Activity was determined as 30%. For the same molecule, in [5], the affinity, expressed as Ki, was 1000 nM.

In data set [6], `Cc1ccc(-c2nc(CN3CCCC3)nn2C)cc1C` had an Activity of 28%. Further, in data set [5], the Ki was greater than 1000 nM.

With `Cn1nc(CN2CCCC2)nc1-c1ccc2cc(Cl)sc2c1`, in data set [5], the Ki stood at 1000 nM.

For `CN(Cc1nc(-c2ccc(C(C)(C)C)cc2)n(C)n1)CC1CC1`, in [7], the inhibition constant Ki came out at 324 nM. Also, the half-life at 10 µM is 3.5 min in [9] and 61.3 min in data set [10]. For the same molecule, the microsomal CLint at 10 µM amounted to 196 µL/min/mg in data set [1] and 11.3 µL/min/mg in data set [2].

In [6], `Cn1nc(CN2CCCC2)nc1-c1ccc(Cl)cc1` returned an Activity of 31%. Also, the Ki in data set [5] is greater than 1000 nM.

`Cn1nc(CN2CCCC2)nc1-c1ccc2c(c1)CCCC2`: in data set [3], the affinity corresponds to a Ki of 26 nM.

`Cn1nc(CN2CCCC2)nc1-c1ccc(-c2ccccc2)cc1` had a Ki in data set [3] of 90 nM. The same molecule registered an Activity in [4] of 60%.

With `Cn1nc(CN2CCCC2)nc1-c1ccc2ccsc2c1`, the Ki is 64 nM in data set [3] and greater than 1000 nM in data set [5].

Turning to `Cn1nc(CN2CCCC2)nc1-c1ccc(-c2ccc(Cl)c(Cl)c2)c(Cl)c1`, the values for the Activity in data set [6] (filed as antagonist) and in [4] were 43% and 79%, respectively.

For `Cc1cc(-c2nc(CN3CCCC3)nn2C)ccc1C(F)(F)F`, the half-life at 10 µM in [9] was 2.6 min; in data set [10] it was 74.9 min. Also, the values for the microsomal CLint at 10 µM in data set [1] and in data set [2] were 263 µL/min/mg and 9.3 µL/min/mg, respectively.

Consider `Cn1nc(CN2CCCC2)nc1-c1cccc(Oc2ccccc2)c1`, for which, in data set [6], the Activity was found to be 21%. The Ki in data set [5] is greater than 1000 nM.

In the case of `CN1CCN(Cc2nc(-c3ccc(C(C)(C)C)cc3)n(C)n2)CC1`, the Ki in data set [7] was greater than 1000 nM.

`NCC1(CC(=O)O)CCCCC1` [GABAPENTIN]: the Activity entry in data set [13] is recorded as “Toxic”. For the same molecule, the result with Rattus norvegicus [14] and in the data set with Rattus norvegicus [15] was Active. Also, in the data set with Rattus norvegicus [16], the result was inactive.

For `Cn1nc(CN2CCN(CCc3ccccc3)CC2)nc1-c1ccc(C(C)(C)C)cc1`, the Ki in data set [8] is 10 nM; in data set [7], 14 nM; in data set [3] it was 49 nM; in data set [5], 17 nM.

For the molecule `Cn1nc(CN2CCOCC2)nc1-c1ccc(C(C)(C)C)cc1`, the Ki in data set [7] is greater than 1000 nM.

Regarding `Cn1nc(CN2CCC(Cc3ccccc3)CC2)nc1-c1ccc(C(C)(C)C)cc1`, the Ki in data set [7] was 57 nM.

Turning to `Cn1nc(CN2CCCC2)nc1-c1cccc(C(C)(C)C)c1`, the values for the Ki in data set [3] and in data set [5] were 29 nM and 1000 nM, respectively.
